In series [1] the test system is Pseudomonas aeruginosa. Nature of the series: Antibacterial activity against Pseudomonas aeruginosa infected in BalbC mouse model of Septicaemia infection assessed as survival rate at 8 mg/kg administered 30 mins post infection and measured after 4 days relative to control. The class given is functional. The note with it: 96 h, time 4 day.
Series [2] can be described thus: Clearance in male Sprague-Dawley rat at 2 mg/kg by LC-MS/MS analysis. The series is classed as ADME, organism-based. The note with it: in vivo.
In series [3] the test system is Pseudomonas aeruginosa. The experiment in a line: Antibacterial activity against Pseudomonas aeruginosa infected in BalbC mouse model of Septicaemia infection assessed as survival rate at 4 mg/kg administered 30 mins post infection and measured after 6 days relative to control. To be noted: 144 h, time 6 day. The class given is functional.
Series [4] has as its system Pseudomonas aeruginosa. The experiment in a line: Antibacterial activity against Pseudomonas aeruginosa infected in BalbC mouse model of Septicaemia infection assessed as survival rate at 4 mg/kg administered 30 mins post infection and measured after 7 days relative to control. To be noted: 168 h, time 7 day. The class given is functional.
In series [5] the test system is Pseudomonas aeruginosa. Nature of the series: Antibacterial activity against Pseudomonas aeruginosa infected in BalbC mouse model of Septicaemia infection assessed as survival rate at 8 mg/kg administered 30 mins post infection and measured after 2 days relative to control. The series is classed as functional. The note with it: 48 h, time 2 day.
Series [6] is described as follows: Plasma protein binding in mouse at 1 uM incubated for 6 hrs by LC-MS/MS analysis. The class given is ADME, cell-free. To be noted: read-out: PPB (converted).
Series [7] relates to Pseudomonas aeruginosa. The experiment in a line: Antibacterial activity against Pseudomonas aeruginosa infected in BalbC mouse model of Septicaemia infection assessed as survival rate at 4 mg/kg administered 30 mins post infection and measured after 2 days relative to control. The series is classed as functional. The note with it: 48 h, time 2 day.
Series [8] deals with Pseudomonas aeruginosa. Nature of the series: Antibacterial activity against Pseudomonas aeruginosa infected in BalbC mouse model of Septicaemia infection assessed as survival rate at 8 mg/kg administered 30 mins post infection and measured after 7 days relative to control. The class given is functional. The note with it: 168 h, time 7 day.
For series [9], the system named is Pseudomonas aeruginosa. The experiment in a line: Antibacterial activity against Pseudomonas aeruginosa infected in BalbC mouse model of Septicaemia infection assessed as survival rate at 8 mg/kg administered 30 mins post infection and measured after 6 days relative to control. The class given is functional. To be noted: 144 h, time 6 day.
Series [10] can be described thus: Half life in male Sprague-Dawley rat at 2 mg/kg by LC-MS/MS analysis. The class given is ADME, organism-based. The note with it: in vivo.
The nature of series [11]: Volume of distribution in male Sprague-Dawley rat at 2 mg/kg by LC-MS/MS analysis. The series is classed as ADME, organism-based. The note with it: in vivo.
Another series relates to J774.A1. Nature of the series: Cytotoxicity against mouse J774.A1 cells at upto 300 ug/ml relative to control. The series is classed as toxicity, cell-based. The note with it: up to 300 µg/mL.
The subject of series [12] is Pseudomonas aeruginosa. The experiment in a line: Antibacterial activity against Pseudomonas aeruginosa infected in BalbC mouse model of Septicaemia infection assessed as survival rate at 4 mg/kg administered 30 mins post infection and measured after 5 days relative to control. The series is classed as functional. The note with it: 120 h, time 5 day.
The next series relates to H9c2. The experiment in a line: Cytotoxicity against rat H9c2 cells at upto 300 ug/ml relative to control. The series is classed as toxicity, cell-based. To be noted: up to 300 µg/mL.
Series [13] concerns Pseudomonas aeruginosa. The experiment in a line: Antibacterial activity against Pseudomonas aeruginosa infected in BalbC mouse model of Septicaemia infection assessed as survival rate at 4 mg/kg administered 30 mins post infection and measured after 4 days relative to control. To be noted: 96 h, time 4 day. The class given is functional.
The subject of series [14] is Pseudomonas aeruginosa. The experiment in a line: Antibacterial activity against Pseudomonas aeruginosa infected in BalbC mouse model of Septicaemia infection assessed as survival rate at 8 mg/kg administered 30 mins post infection and measured after 3 days relative to control. The class given is functional. The note with it: 72 h, time 3 day.
For the next series, the system named is THP-1. The experiment in a line: Cytotoxicity against human THP-1 cells at upto 300 ug/ml relative to control. To be noted: up to 300 µg/mL. The series is classed as toxicity, cell-based.
Series [15] concerns Pseudomonas aeruginosa. The experiment in a line: Antibacterial activity against Pseudomonas aeruginosa infected in BalbC mouse model of Septicaemia infection assessed as survival rate at 4 mg/kg administered 30 mins post infection and measured after 3 days relative to control. The series is classed as functional. To be noted: 72 h, time 3 day.
Series [16] relates to Pseudomonas aeruginosa. The experiment in a line: Antibacterial activity against Pseudomonas aeruginosa infected in BalbC mouse model of Septicaemia infection assessed as survival rate at 8 mg/kg administered 30 mins post infection and measured after 5 days relative to control. The class given is functional. The note with it: 120 h, time 5 day.
Series [17] can be described thus: Cytotoxicity against mouse BALB/3T3 clone A31 cells at upto 300 ug/ml relative to control. The series is classed as toxicity, cell-based. To be noted: up to 300 µg/mL.
Series [18] has as its system Pseudomonas aeruginosa. Nature of the series: Antibacterial activity against Pseudomonas aeruginosa infected in BalbC mouse model of Septicaemia infection assessed as survival rate at 4 mg/kg administered 30 mins post infection and measured after 1 day relative to control. The class given is functional. To be noted: 24 h.
Series [19] relates to Pseudomonas aeruginosa. The experiment in a line: Antibacterial activity against Pseudomonas aeruginosa infected in BalbC mouse model of Septicaemia infection assessed as survival rate at 128 mg/kg administration starting at 0.5 to 2 hrs post infection and measured after 5 days relative to control. The series is classed as functional. The note with it: 120 h, time 5 day.
Series [20] relates to Pseudomonas aeruginosa. The experiment in a line: Antibacterial activity against Pseudomonas aeruginosa infected in BalbC mouse model of Septicaemia infection assessed as survival rate at 64 mg/kg administration starting at 0.5 to 2 hrs post infection and measured after 1 day relative to control. The note with it: 24 h. The class given is functional.
For series [21], the system named is Pseudomonas aeruginosa. The experiment in a line: Antibacterial activity against Pseudomonas aeruginosa infected in BalbC mouse model of Septicaemia infection assessed as survival rate at 128 mg/kg administration starting at 0.5 to 2 hrs post infection and measured after 3 days relative to control. The series is classed as functional. The note with it: 72 h, time 3 day.

Series [22] deals with Pseudomonas aeruginosa. The experiment in a line: Antibacterial activity against Pseudomonas aeruginosa infected in BalbC mouse model of Septicaemia infection assessed as survival rate at 64 mg/kg administration starting at 0.5 to 2 hrs post infection and measured after 4 days relative to control. The series is classed as functional. The note with it: 96 h, time 4 day.
For series [23], the system named is Pseudomonas aeruginosa. Nature of the series: Antibacterial activity against Pseudomonas aeruginosa infected in BalbC mouse model of Septicaemia infection assessed as survival rate at 128 mg/kg administration starting at 0.5 to 2 hrs post infection and measured after 2 days relative to control. To be noted: 48 h, time 2 day. The class given is functional.
Series [24] concerns Pseudomonas aeruginosa. The experiment in a line: Antibacterial activity against Pseudomonas aeruginosa infected in BalbC mouse model of Septicaemia infection assessed as survival rate at 64 mg/kg administration starting at 0.5 to 2 hrs post infection and measured after 2 days relative to control. The class given is functional. To be noted: 48 h, time 2 day.
In series [25] the test system is Pseudomonas aeruginosa. Nature of the series: Antibacterial activity against Pseudomonas aeruginosa infected in BalbC mouse model of Septicaemia infection assessed as survival rate at 64 mg/kg administration starting at 0.5 to 2 hrs post infection and measured after 6 days relative to control. The series is classed as functional. The note with it: 144 h, time 6 day.

Series [26] deals with Pseudomonas aeruginosa. Nature of the series: Antibacterial activity against Pseudomonas aeruginosa infected in BalbC mouse model of Septicaemia infection assessed as survival rate at 64 mg/kg administration starting at 0.5 to 2 hrs post infection and measured after 3 days relative to control. The note with it: 72 h, time 3 day. The series is classed as functional.
Series [27] concerns Pseudomonas aeruginosa. The experiment in a line: Antibacterial activity against Pseudomonas aeruginosa infected in BalbC mouse model of Septicaemia infection assessed as survival rate at 128 mg/kg administration starting at 0.5 to 2 hrs post infection and measured after 7 days relative to control. The series is classed as functional. To be noted: 168 h, time 7 day.
Series [28] relates to Pseudomonas aeruginosa. The experiment in a line: Antibacterial activity against Pseudomonas aeruginosa infected in BalbC mouse model of Septicaemia infection assessed as survival rate at 64 mg/kg administration starting at 0.5 to 2 hrs post infection and measured after 5 days relative to control. The class given is functional. The note with it: 120 h, time 5 day.
The subject of series [29] is Pseudomonas aeruginosa. Nature of the series: Antibacterial activity against Pseudomonas aeruginosa infected in BalbC mouse model of Septicaemia infection assessed as survival rate at 128 mg/kg administration starting at 0.5 to 2 hrs post infection and measured after 4 days relative to control. The class given is functional. To be noted: 96 h, time 4 day.
The test system of series [30] is Pseudomonas aeruginosa. The experiment in a line: Antibacterial activity against Pseudomonas aeruginosa infected in BalbC mouse model of Septicaemia infection assessed as survival rate at 64 mg/kg administration starting at 0.5 to 2 hrs post infection and measured after 7 days relative to control. The class given is functional. To be noted: 168 h, time 7 day.
In series [31] the test system is Pseudomonas aeruginosa. Nature of the series: Antibacterial activity against Pseudomonas aeruginosa infected in BalbC mouse model of Septicaemia infection assessed as survival rate at 128 mg/kg administration starting at 0.5 to 2 hrs post infection and measured after 1 day relative to control. The class given is functional. To be noted: 24 h.

This is an account of results in ChEMBL document CHEMBL5579794, “Improved synthesis and evaluation of preclinical pharmacodynamic parameters of a new monocyclic β-lactam DPI-2016” (Bioorg Med Chem Lett, 2024).

A value given as a limit tells only on which side of the number the result lay.

In the case of `Cc1sc(N)nc1/C(=N/O[C@@H](COc1ccc(C(=N)N[C@@H]2CCNC2)cc1)C(=O)O)C(=O)N[C@@H]1C(=O)N(OS(=O)(=O)O)C1(C)C`, the survival at 8 mg/kg with Pseudomonas aeruginosa [1], in the series on Pseudomonas aeruginosa [5], with Pseudomonas aeruginosa [8], in the series on Pseudomonas aeruginosa [9], in the series with Pseudomonas aeruginosa [14] and in the series with Pseudomonas aeruginosa [16] was 60% throughout. Besides, the clearance in series [2] is 0.75 L/h/kg. Besides, the survival at 4 mg/kg worked out at 30% with Pseudomonas aeruginosa [3]; 30% in the series on Pseudomonas aeruginosa [4]; 60% with Pseudomonas aeruginosa [7]; 30% in the series with Pseudomonas aeruginosa [12]; 30% in the series on Pseudomonas aeruginosa [13]; 30% with Pseudomonas aeruginosa [15]. The survival at 4 mg/kg with Pseudomonas aeruginosa [18] stood at 60%. Moreover, the fraction unbound at 6 h, 1 µM in [6] is 0.532. Moreover, in series [10], the half-life was 24 min. The molecule further yielded a Vd in series [11] of 0.37 L/kg. The Activity (in the series on J774.A1; with H9c2; with THP-1; in series [17]) was more than 80% in each case.

Consider `C[C@H]1[C@H](NC(=O)/C(=N\OC(C)(C)C(=O)O)c2csc(N)n2)C(=O)N1S(=O)(=O)O` [AZTREONAM], for which the survival at 128 mg/kg in the series on Pseudomonas aeruginosa [19] was 90%; in the series on Pseudomonas aeruginosa [21] it was 90%; in the series with Pseudomonas aeruginosa [23] it was 90%; in the series on Pseudomonas aeruginosa [27] it was 90%; in the series on Pseudomonas aeruginosa [29], 90%; in the series with Pseudomonas aeruginosa [31], 100%. The survival at 64 mg/kg in the series on Pseudomonas aeruginosa [20] came to 100%; in the series on Pseudomonas aeruginosa [22], 60%; in the series on Pseudomonas aeruginosa [24], 60%; in the series with Pseudomonas aeruginosa [25], 60%; with Pseudomonas aeruginosa [26], 60%; with Pseudomonas aeruginosa [28], 60%. For the same molecule, the survival at 64 mg/kg in the series on Pseudomonas aeruginosa [30] amounted to 60%.

As a reminder, the clearance is the rate of elimination divided by the concentration. The half-life is how long it takes for the measured level to halve. Higher therefore signals slow decline. One may read the Vd as a proportionality between amount in the body and measured concentration, not a real space.
